Patent US20260034119A1, “5-METHOXY-N,N-[…][…], THEIR […], AND METHODS FOR TREATMENT OF NEUROLOGICAL, […], AND SUBSTANCE USE DISORDERS” (priority 2023, published 2026)
Read-outs that look alike come from different tables or passages of the source.

What was measured:
[1] = In vivo pharmacokinetics in mice (plasma and brain, subcutaneous); design: species or system mouse; details: for Kp / Cmax: male, C57BL/6, mouse, sc, 1 mg/kg; for Kp: brain and plasma
Experimental: Test System: Healthy male C57BL/6 mice (8-12 weeks old) weighing between 20 to 35 g were procured from Global (India). Three mice were housed in each cage. Temperature and humidity were maintained at 22±3° C. and 30-70%, respectively and illumination was controlled to give a sequence of 12 hr light and 12 hr dark cycle. Temperature and humidity were recorded by auto-controlled data logger system. All animals were provided laboratory rodent diet (Envigo Research Private Ltd, Hyderabad, India). Reverse osmosis water treated with UV light was provided ad libitum.
Study Design: Total twenty-seven male mice were used in this study with 3 mice/time point design. Animals were administered subcutaneously […] with solution formulation of compound at the requited dose.
Formulation Preparation: Accurately weighed of the desired compound was taken in a labeled bottle. To this the appropriate amount of normal saline was added, vortexed and followed by addition of 2 mol. equiv. of glacial acetic acid. The above formulation was again vortexed and sonicated for about 1 h with intermittent vortexing to obtain clear solution. The final dose formulation was filtered through 0.45 micron filter. No adverse clinical signs in any animals during study period.
Sample Collection: Blood samples (approximately 60 μL) were collected under light isoflurane anesthesia (Surgivet®) from retro orbital plexus from a set of three mice at 0.083, 0.25, 0.5, 1, 2, 4, 8, and 12 hr. Immediately after blood collection, plasma was harvested by centrifugation at 4000 rpm, 10 min at […] and samples were stored at −70±10° C. until bioanalysis. Following blood collection, immediately animals were sacrificed followed by abdominal vena-cava was cut open and whole body was perfused from heart using 10 mL of normal saline. Brain samples were collected from set of three mice at 0.083, 0.25, 0.5, 1, 2, 4, 8, and 12 hr. After isolation, brain samples were rinsed three times in ice cold normal saline (for 5-10 seconds/rinse using ˜5-10 mL normal saline in disposable petri dish for each rinse) and dried on blotting paper. Brain samples were homogenized using ice-cold phosphate buffer saline (pH-7.4). Total homogenate volume was three times the tissue weight. All homogenates were stored below −70±10° C. until bioanalysis.
Concentrations of the compound in mouse plasma and brain samples were determined by fit for purpose LC-MS/MS method. The sample processing and extraction procedure, chromatographic and mass spectrometric conditions as follows:
Non-Compartmental-Analysis tool of Phoenix WinNonlin® Version 8.0 (Certara, Princeton, NJ, USA) was used to assess the pharmacokinetic parameters. Peak plasma concentration (Cmax) and time for the peak plasma concentration (Tmax) were the observed values. The areas under the concentration time curve (AUClast and AUCinf) were calculated by linear trapezoidal rule. The terminal elimination rate constant, ke was determined by regression analysis of the linear terminal portion of the log plasma concentration-time curve. Tissue-Kps were calculated using Microsoft Excel® (Microsoft Corporation, […], WA, USA).

[2] = test system: C57BL/6J mice; test: Sucrose preference test after chronic social defeat stress; format: in vivo, mouse; details: stressed mice
Text: The sucrose preference test is a volitional two-bottle choice procedure in which mice are given the choice between consuming water and a 1% sucrose solution. This paradigm has been used extensively to assess the effects of stress-induced anhedonia. On day 10 of CSDS mice were individually housed and habituated to two bottles containing just water. Twenty-four hours later, following the SI test, one bottle was replaced with a 1% sucrose solution (w/v) made with water from the animal vivarium. Mice had ad libitum overnight access to both bottles and preference for sucrose over water was calculated as follows: [sucrose/(sucrose+water)*100]. Data were averaged from two independent experiments. A total of 27 mice were administered vehicle (9 control, 18 stress), 27 received 4-F, 5-MeO-PyrT (9 control, 18 stress), 15 received WAY-100635 (5 control, 10 stress), and 15 received 4-F, 5-MeO-PyrT+WAY-100635 (5 control, 10 stress). More animals were used for the stressed groups due to the inherent resilience of mice to social defeat stress (Krishnan et al. 2007). Analysis of different treatment conditions of control and stressed animals was done in GraphPad Prism using two-way ANOVA.

[3] = test system: mice; test: Open field locomotor activity; format: in vivo, mouse
[4] = target: T1, OCT2 (Homo sapiens, UniProt O15244); test: OCT2 uptake inhibition; format: cell-based; details: compared with 5-HT1A
T1 construct: expressed in transfected cells; host or cells: Flp-In T-Rex cell line (ThermoFisher), tetracycline-induced
T1 sequence (O15244 1-555): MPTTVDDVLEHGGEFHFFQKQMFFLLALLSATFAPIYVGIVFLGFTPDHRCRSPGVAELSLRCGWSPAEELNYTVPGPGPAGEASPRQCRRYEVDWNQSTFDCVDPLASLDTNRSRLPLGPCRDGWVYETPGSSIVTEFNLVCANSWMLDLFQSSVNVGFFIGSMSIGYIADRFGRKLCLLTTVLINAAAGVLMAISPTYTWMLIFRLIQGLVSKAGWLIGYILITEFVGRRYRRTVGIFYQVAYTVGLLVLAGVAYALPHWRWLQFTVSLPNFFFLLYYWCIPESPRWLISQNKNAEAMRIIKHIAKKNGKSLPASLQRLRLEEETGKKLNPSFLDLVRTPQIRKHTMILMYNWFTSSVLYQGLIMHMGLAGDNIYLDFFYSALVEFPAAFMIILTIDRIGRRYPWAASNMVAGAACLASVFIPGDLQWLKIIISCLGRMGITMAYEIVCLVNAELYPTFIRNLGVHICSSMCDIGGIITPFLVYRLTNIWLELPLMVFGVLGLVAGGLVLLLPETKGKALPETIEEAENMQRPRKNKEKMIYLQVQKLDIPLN
Experimental: Inducible cell lines stably expressing OCT1, OCT2, or PMAT were generated using the Flp-In T-Rex cell line (ThermoFisher) according to manufacturer recommendations. Cells were maintained in DMEM supplemented with 10% FBS, 100 μg/ml hygromycin B (GoldBio), and 10 μg/ml blasticidin (GoldBio). To measure uptake inhibition, cells were seeded into poly-L-lysine coated clear-bottom 384-well plates at a density of 25,000 cells per well in DMEM containing 10% FBS and 2 μg/ml of tetracycline (Sigma) to induce transporter expression. […] Cells were incubated with drug for 30 min at 37° C. Fluorescent substrate was then added to the cells. […] Cells were incubated with respective substrates for an hour at 37° C. OCT2 cells were read directly in a Victor NIVO plate reader using 495 nm excitation and 580 emission filter for 0.1 s. OCT1 and PMAT cells were washed in HBSS supplemented with 20 mM HEPES pH 7.4 before reading in a Victor NIVO plate reader using 435 nm excitation and 480 nm emission filter for 0.1 s.

## COc1ccc2[nH]cc(CCN3CCCC3)c2c1F [4-F, 5-MeO-PyrT, 4-Fluoro, 5-methoxypyrrolidinyl-tryptamine]
[1]; mouse, 1 mg/kg s.c., read-out: total brain:plasma ratio
  Kp: 3.3
[1]; mouse, 1 mg/kg s.c., read-out: unbound brain:plasma ratio
  Kp: 0.91
[1]; brain, mouse brain, 1 mg/kg SC, read-out: Total Cmax (ng/mL), Brain
  Cmax: 143 ng/mL
[1]; brain, mouse, 1 mg/kg subcutaneous, read-out: Cmax/brain
  Cmax: 143 ng/mL
[1]; plasma, mouse plasma, 1 mg/kg SC, read-out: Total Cmax (ng/mL), Plasma
  Cmax: 44 ng/mL
[1]; mouse brain, 1 mg/kg SC
  Total AUClast ((hr*ng)/mL), Brain: 128.34 ng·h/mL
[1]; mouse brain, 1 mg/kg s.c.
  time at which brain penetration peaks: 30 min
[1]; mouse plasma, 1 mg/kg SC
  Total AUClast ((hr*ng)/mL), Plasma: 26.40 ng·h/mL
[1]; mouse, 1 mg/kg s.c.
  compound largely cleared within: ≤ 2 h
  estimated free drug concentration in the brain at Tmax: ~100 nM
[2]
  effect on sucrose preference under WAY-100635 co-administration: reversed the effects
[2]; relative to vehicle-treated animals
  sucrose preference: significantly increased sucrose preference
[3]; mice, s.c.
  lowest dose producing suppression of locomotion: 0.03 mg/kg
[3]; open field, WAY-100635 1 mg/kg s.c. 15 min prior, compound 1 mg/kg s.c.
  sedative effects after WAY-100635 pretreatment: negates the sedative effects
[4]
  activity at other neurotransmitter transporters (OCT2): substantially lower activity
